In US20120171123A1, “USES AND COMPOSITIONS FOR TREATMENT OF RHEUMATOID ARTHRITIS” (priority 2006, published 2012):

Assays:
Format in all cases: in vivo, human
[1] = system: MTX-naïve adult patients with early RA (<3 years); experiment: Study J: SF-36 (domains, PCS, MCS) with criteria- and content-based interpretation; parameters: key to mean SF-36 PCS score / SF-36 Role-Physical score / SF-36 Bodily Pain score / SF-36 General Health score / SF-36 Vitality score / SF-36 Social Functioning score / SF-36 Role-Emotional score / SF-36 Mental Health score / SF-36 PCS score / SF-36 MCS score / SF-36 Physical Functioning score: scale 0-100, higher = better health-related quality of life; conditions: for SF-36 Bodily Pain score / SF-36 General Health score / SF-36 MCS score / SF-36 Mental Health score / SF-36 PCS score / SF-36 Physical Functioning score / SF-36 Role-Emotional score / SF-36 Role-Physical score / SF-36 Social Functioning score / SF-36 Vitality score: LOCF
Source text: Study J was a 2-year, double-blind, active comparator-controlled, Phase III study conducted at many sites worldwide.
The SF-36 was used to assess the 8 domains of HRQOL—physical functioning, role-physical, bodily pain, general health, vitality, social functioning, role-emotional, and mental health. These 8 domains were aggregated into Physical Component Summary (PCS) and Mental Component Summary (MCS) scores. The SF-36 has a scale of 0-100, with higher scores indicating better health-related quality of life.
Minimum clinically important differences (MCID) are defined as improvements of 5-10 points in the individual domains scores and 2.5-5 points in the PCS and MCS^5.
All HRQOL domains were measured at baseline, and after 12, 26, 42, 52, 76, and 104 weeks of therapy. In this analysis, mean scores and mean changes in each HRQOL domain are reported, as well as the PCS and MCS, at Weeks 12 and 104. Criteria-based interpretation was used to understand the meaning of differences in PCS scores for work loss and resource use and content-based interpretation for specific SF-36 items.^4
Study J was a 2-year, double-blind, active comparator-controlled, Phase III study conducted at 149 sites in North America, Europe, and Australia. […] The SF-36 was used to assess the 8 domains of HRQOL—physical functioning, role-physical, bodily pain, general health, vitality, social functioning, role-emotional, and mental health. These 8 domains were aggregated into Physical Component Summary (PCS) and Mental Component Summary (MCS) scores. The SF-36 has a scale of 0-100, with higher scores indicating better health-related quality of life. Minimum clinically important differences (MCID) are defined as improvements of 5-10 points in the individual domains scores and 2.5-5 points in the PCS and MCS (Kosinski M, et al. Arthritis Rheum 2000:43:1478-87). All HRQOL domains were measured at baseline, and after 12, 26, 42, 52, 76, and 104 weeks of therapy. In this analysis, we report mean scores and mean changes in each HRQOL domain, as well as the PCS and MCS, at Weeks 12 and 104. We used criteria-based interpretation to understand the meaning of differences in PCS scores for work loss and resource use and content-based interpretation for specific SF-36 items (Weinblatt M E, et al. Arthritis Rheum 2003; 48:35-45).

[2] = system: patients with RA who had failed prior treatment with infliximab; experiment: Adalimumab after failed infliximab (16-week study): DAS28; conditions: for Change in DAS28, mean change from baseline: 16 wk
Source text: (§1) Patients eligible to participate in the study included those with long-standing, moderate to severe RA who had terminated infliximab therapy because of lack or loss of efficacy and/or intolerance/side effects. […] Follow-up visits for safety and efficacy monitoring were scheduled at 2, 8, and 16 weeks. […] Efficacy parameters included TJC28 and SJC28; DAS28; ACR20, ACR50 Response; Moderate EULAR response; and HAQ. Subgroup analysis by reason for discontinuation included: • in case of discontinuation due to lack or loss of efficacy, patients were counted in the corresponding group regardless of additional cause of intolerance. • The subgroup “Discontinuation due to intolerance” was exclusive.

[3] = system: patients with RA who had failed prior treatment with infliximab; experiment: Adalimumab after failed infliximab: ACR20/ACR50 and moderate EULAR response; conditions: 16 wk
Source text: as §1

[4] = Baseline, percentages based on general US population norms
[5] = Week 104, percentages based on general US population norms
[6] = all reasons for infliximab withdrawal (N=37)
[7] = no response to infliximab (N=13)
[8] = loss of response to infliximab (N=19)

## CN(Cc1cnc2nc(N)nc(N)c2n1)c1ccc(C(=O)N[C@@H](CCC(=O)O)C(=O)O)cc1 [mtx alone, methotrexate]
[1]; Baseline
  SF-36 Bodily Pain score: 29.9
  SF-36 General Health score: 49.7
  SF-36 MCS score: 43.5
  SF-36 Mental Health score: 62.1
  SF-36 PCS score: 32.2
  SF-36 Physical Functioning score: 38.9
  SF-36 Role-Emotional score: 41.1
  SF-36 Role-Physical score: 16.4
  SF-36 Social Functioning score: 56.5
  SF-36 Vitality score: 37.1
[1]; [4]
  Interpretation of SF-36 PCS, Content-Based: Climb stairs: 66.4%
  Interpretation of SF-36 PCS, Content-Based: Difficulty working: 88.1%
  Interpretation of SF-36 PCS, Content-Based: Have energy: 9.7%
  Interpretation of SF-36 PCS, Content-Based: Time off work: 64.8%
  Interpretation of SF-36 PCS, Content-Based: Walk on block: 44.4%
  Interpretation of SF-36 PCS, criteria-based: Hospitalized: 10.7%
  Interpretation of SF-36 PCS, criteria-based: Job loss: 30.3%
  Interpretation of SF-36 PCS, criteria-based: MD visit: 47.7%
  Interpretation of SF-36 PCS, criteria-based: Not work: 44.1%
[1]; Week 12
  SF-36 Bodily Pain score: 51.0
  SF-36 General Health score: 58.9
  SF-36 MCS score: 49.0
  SF-36 Mental Health score: 71.2
  SF-36 PCS score: 38.3
  SF-36 Physical Functioning score: 51.1
  SF-36 Role-Emotional score: 60.5
  SF-36 Role-Physical score: 40.4
  SF-36 Social Functioning score: 72.0
  SF-36 Vitality score: 51.6
[1]; Week 104
  SF-36 Bodily Pain score: 57.0
  SF-36 General Health score: 68.3
  SF-36 MCS score: 49.9
  SF-36 Mental Health score: 72.9
  SF-36 PCS score: 41.2
  SF-36 Physical Functioning score: 58.9
  SF-36 Role-Emotional score: 64.5
  SF-36 Role-Physical score: 48.6
  SF-36 Social Functioning score: 75.5
  SF-36 Vitality score: 56.9
[1]; [5]
  Interpretation of SF-36 PCS, Content-Based: Climb stairs: 30.7%
  Interpretation of SF-36 PCS, Content-Based: Difficulty working: 51.2%
  Interpretation of SF-36 PCS, Content-Based: Have energy: 26.6%
  Interpretation of SF-36 PCS, Content-Based: Time off work: 29.8%
  Interpretation of SF-36 PCS, Content-Based: Walk on block: 21.4%
  Interpretation of SF-36 PCS, content-based: Climb stairs: 30.7%
  Interpretation of SF-36 PCS, content-based: Difficulty working: 61.2%
  Interpretation of SF-36 PCS, content-based: Have energy: 26.6%
  Interpretation of SF-36 PCS, content-based: Time off work: 29.8%
  Interpretation of SF-36 PCS, content-based: Walk on block: 21.4%
  Interpretation of SF-36 PCS, criteria-based: Hospitalized: 7.7%
  Interpretation of SF-36 PCS, criteria-based: Job loss: 20.8%
  Interpretation of SF-36 PCS, criteria-based: MD visit: 34.6%
  Interpretation of SF-36 PCS, criteria-based: Not work: 24.2%
[1]; week 12 (baseline 31.7 combination, 32.2 MTX)
  mean SF-36 PCS score: 38.3

## adalimumab: human anti-TNF mAb (HUMIRA, Abbott Laboratories), described in U.S. Pat. No. 6,090,382 as D2E7
[2]; [6]
  Change in DAS28, mean change from baseline: −1.6
[2]; infliximab intolerance (N=5)
  Change in DAS28, mean change from baseline: −1.4
[2]; [7]
  Change in DAS28, mean change from baseline: −1.0
[2]; week 16
  maximum change in DAS28: −4.7
[2]; week 16, completers (21 of 37)
  patients with a decrease in DAS28 of ≧1.2: 57%
[3]; [6]
  ACR20: 49%
  ACR50: 26%
  Moderate EULAR response: 65%
[3]; infliximab intolerance (N=5)
  ACR20: 40%
  ACR50: 20%
  Moderate EULAR response: 80%
[3]; [8]
  ACR20: 61%
  ACR50: 39%
  Moderate EULAR response: 74%
[3]; [7]
  ACR20: 33%
  ACR50: 8%
  Moderate EULAR response: 46%
